Source: US9187496B2 (priority 2009, dated 2015)
Like-named read-outs stand apart in the source and are kept apart here.

Key:
[1] = biological target: HCV genotype 1b Conl strain subgenomic luciferase replicon (Zluc); experiment: Luciferase replicon assay, genotype 1b; type: cell-based; conditions: read-out: EC50 1b
Procedure, shortened: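 Huh-7 cells carrying the genotype 1b Con1 subgenomic luciferase–neo replicon (Zluc), seeded at 7.5×10^3 cells/well, got ten 5-fold compound dilutions 3 h after plating and were incubated 72 h at 37 °C. Replication was read as ONE-Glo luciferase luminescence. EC50 came from dose-response curve fits.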

[2] = test system: HCV genotype 2a-specific NS5A gene within the 1b-replicon; experiment: Luciferase replicon assay, NS5A-intergenotypic stable cell line genotype 2a; type: cell-based; conditions: read-out: EC50 2a
[3] = test system: HCV genotype 3a-specific NS5A gene within the 1b-replicon; experiment: Luciferase replicon assay, NS5A-intergenotypic stable cell line genotype 3a; type: cell-based; conditions: read-out: EC50 3a
[4] = test system: HCV genotype 4a-specific NS5A gene within the 1b-replicon; experiment: Luciferase replicon assay, NS5A-intergenotypic stable cell line genotype 4a; type: cell-based; conditions: read-out: EC50 4a
[5] = test system: H1a-luc or Zluc cells; experiment: Cytotoxicity evaluation in luciferase replicon cells (Cell Titer 96 AQueous One); type: cell-based, human; conditions: Table 1B, cellular viability
Description: (§1) For cytotoxicity evaluation, H1a-luc or Zluc cells were treated with compounds as described above and cellular viability was monitored using the Cell Titer 96 AQueous One Solution Cell Proliferation Assay (Promega). Plates were then read at 490 nm in a Victor^3V 1420 multilabel counter (Perkin Elmer) and CC50 concentrations were determined using Microsoft Excel and XLfit 4.1 software.

[6] = test system: Huh-7 cells containing HCV Con1 subgenomic replicon (GS4.1 cells); experiment: HCV replicon assay (NS5A ELISA); type: cell-based; conditions: Hepatitis C virus, Huh-7; GS4.1 cells, 72 hrs, NS5A ELISA; read-out: EC50
Procedure, shortened: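 GS4.1 cells dosed 3 h after seeding with ten 2-fold dilutions from 75 μM, or single 15 μM, in 0.5% DMSO for 72 h at 37° C; NS5A measured by ELISA (A-236 antibody, OPD, A492). EC50 from four-parameter sigmoidal fit of % inhibition.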

[7] = Cytotoxicity evaluation in GS4.1 cells (Cell Titer 96 AQueous One); type: cell-based, human; conditions: human, cellular viability
Description: For cytotoxicity evaluation, GS4.1 cells were treated with compounds as described above and cellular viability was monitored using the Cell Titer 96 AQueous One Solution Cell Proliferation Assay (Promega). CC50 values were determined from the % cytotoxicity versus concentration data with Tecan Magellan software as described above.

[8] = test system: HCV genotype 1a H77 strain (H1a-luc replicon / 1a-H77NS5a intergenotypic replicon); experiment: Luciferase replicon assay, genotype 1a; type: cell-based; conditions: Hepatitis C virus, read-out: EC50 1a, genotype 1a
Description: To generate the 1a-H77NS5a intergenotypic plasmid, dual cut sites were inserted into the ZS11-luciferase genotype 1b backbone that would bracket the NS5a region almost in its entirety. Using PCR and 1a-H77 specific primers also containing the corresponding restriction enzyme sites, the NS5a gene was amplified from the 1a-H77 replicon. The ZS11-luciferase genotype 1b backbone and the genotype 1a NS5a PCR products were restriction enzyme digested and then ligated using standard molecular cloning techniques. The newly constructed plasmid contains the genotype 1a-specific NS5a gene where as the backbone remains 1b as described herein.
These new intergenotypic plasmids were used to establish stable cell lines. RNA was generated from the NS5A intergenotypic plasmids and used in conjunction with a lipofectin reagent to transfect a cured Huh7 cell line. Transfected cells were selected for with G418. After selection has occurred the stable cell lines were propagated, tested for luciferase activity, and RT-PCR with genotype specific primers (either 1a, 2a, 3a, or 4a). Stable cell lines containing the intergenotypic replicon were then fully sequenced and analysed for proper expression of NS3, NS5A and NS5B proteins.
Drug titration analysis was performed using the luciferase replicon assay described herein.
The HCV luciferase replicon assay measures the ability of a test compound to inhibit HCV replication in cell culture after 3 days of treatment in a human hepatoma cell line (Huh-7) bearing a HCV replicon containing a luciferase-neomycin phosphotransferase fusion gene. The inhibition of HCV replication was measured by quantification of luciferase protein expression. Briefly, Huh-7 cells containing either the HCV genotype 1a H77 strain or genotype 1b Conl strain subgenomic luciferase replicon (H1a-luc or Zluc, respectively) were grown in DMEM containing glucose, L-glutamine and sodium pyruvate, 10% fetal bovine serum (FBS), 100 IU/mL penicillin, 100 μg/mL streptomycin, 2 mM GlutaMAX, non-essential amino acids and 0.25 (H1a-luc) or 0.5 (Zluc) mg/mL G418. GlutaMAX was obtained from Invitrogen, Corp.; all other media reagents were obtained from Mediatech, Inc. For dose-response testing, the cells were seeded in 96-well plates at 1×10^4 (H1a-luc) or 7.5×10^3 (Zluc) cells/well in a volume of 50 μL, and incubated at 37° C./5% CO2. Three hours after plating, 50 μL of ten 5-fold serial dilutions of compound were added, and cell cultures were incubated at 37° C./5% CO2 for 72 hours. In all cases, Huh-7 cells lacking the HCV replicon served as negative control. To assess luciferase expression, the media/compound was removed from the plates and ONE-glo Luciferase assay reagent (Promega) was added to each well. The assay plates were shaken for 3 minutes at room temperature and luciferase activity for each well was measured with a 1 sec read time on the Victor^3V multilabel counter using a 700 nm cut-off filter (Perkin Elmer). EC50 values were calculated from dose response curves from the resulting best-fit equations determined by Microsoft Excel and XLfit 4.1 software.

[9] = Cytotoxicity evaluation in luciferase replicon cells (Cell Titer 96 AQueous One); type: cell-based, human; conditions: human; Table 1B, cellular viability
Description: as §1

Compound | EC50 ([1]; genotype 1b, luciferase replicon, 72 hours) | EC50 ([2]; genotype 2a) | EC50 ([3]; genotype 3a) | EC50 ([4]; genotype 4a) | CC50 [5] | EC50 [6] | CC50 [7] | EC50 ([1]; Hepatitis C virus, 72 h) | EC50 ([2]; Hepatitis C virus) | EC50 ([3]; Hepatitis C virus) | EC50 ([4]; Hepatitis C virus) | EC50 [8] | CC50 at 72 h [9]
COC(=O)N[C@H](C(=O)N1CCC[C@H]1c1nc2ccc(-c3csc4c(C#Cc5cnc([C@@H]6CCCN6C(=O)[C@H](NC(=O)OC)c6ccccc6)[nH]5)csc34)cc2[nH]1)C(C)C [Compound A206] | < 0.1 nM | < 0.1 nM | < 0.1 nM | < 0.1 nM | > 75000 nM |  |  |  |  |  |  |  | 
COC(=O)N[C@H](C(=O)N1CCC[C@H]1c1ncc(-c2ccc(-c3csc4c(-c5ccc(-c6cnc([C@@H]7CCCN7C(=O)[C@@H](NC(=O)OC)C(C)C)[nH]6)cc5)csc34)cc2)[nH]1)C(C)C [Compound A86, ((S)-1-((S)-2-(5-{4-[6-{4-{2-[(S)-1-((S)-2-methoxycarbonylamino-3-methyl-butyryl)-pyrrolidin-2-yl]-3H-imidazol-4-yl}-phenyl)-thieno[3,2-b]thiophen-3-yl]-phenyl}-1H-imidazol-2-yl)-pyrrolidine-1-carbonyl]-2-methyl-propyl}-carbamic acid methyl ester] |  |  |  |  |  | < 1 nM | 10000 to 75000 nM | < 0.1 nM | 1 to 10 nM | 1 to 10 nM | < 0.1 nM | 0.1 to 1 nM | 10000 to 75000 nM
